Source: patent US8551997B2, “Structural-based inhibitors of the glutathione binding site in aldose reductase, methods of screening therefor and methods of use” (The Board of Regents of the University of Texas System, priority 2004, dated 2013)

Test system: HT29-GFP cells
Assay: HT29-GFP liver metastasis in nude mice
Type: in vivo, mouse
Settings: sorbinil 40 mg/kg body weight in the diet, 34 days
Method: For in vivo metastasis studies, 4- to 6-weeks-old male nude^nu/nu mice were obtained from Harlan Sprague Dawley (Indianapolis, Ind.) and housed in clean, pathogen-free rooms in an environment with controlled temperature (22° C.), humidity and a 12 hours light/dark cycle. The mice were fed standard chow (Formula Chow 5008; Purina Mills, St. Louis, Mo.), given tap water ad libitum and were allowed to acclimate for 1 week. Metastatic HT29-GFP cells were injected intrasplenically by known methods.
Briefly, mice were anesthetized with halothane, a small left abdominal flank incision was created and the spleen was exteriorized. HT29-GFP cells were harvested using only trypsin and were resuspended as a single-cell suspension in Hanks Balanced Salt Solution, free of Mg^2+ and Ca^2+. HT29-GFP cells (5×10^6 cells/400 μl) were injected into the spleen with a 27-gauge needle. The spleen was returned to the abdomen and the wound was closed in one layer with wound clips. After 24 hrs spleen was removed and animals were randomized into metastatic control and AR inhibitor, sorbinil group. Control group was fed with normal diet and AR inhibitor group fed with sorbinil (40 mg/kg body weight) in the diet. Mice were killed after 35 days, and metastasis in the liver was evaluated by using the Illumatool TLS (Lightools Research, Encinitas, Calif.). […]

(S)-6-fluorospiro[chroman-4,4′-imidazolidine]-2,5′-dione [sorbinil]
tumor metastasis to the liver (GFP fluorescence, pixel numbers): significant decrease
